Patent US9980928B2, “Hydroxy aliphatic substituted phenyl aminoalkyl ether derivatives” (PROUS INSTITUTE FOR BIOMEDICAL RESEARCH, S.A., priority 2012, dated 2018)

Experiments:
mice [1] = assay: Forced swimming test in mice; assay type: in vivo
Description: The antidepressant activity was determined using the forced swimming test described in Porsolt, R.-D. et al. Arch Int Pharmacodyn 1977, 229(2): 327-36.
Reduction in the duration of immobility by 50% or more relative to the control group indicates possible antidepressant activity. Also, one-way ANOVA followed by Dunnett's test was applied to compare the test compound-treated and vehicle control groups. Significance was considered to be P<0.05.

mice [2] = assay: Tail suspension assay in mice; assay type: in vivo; conditions: 90 mg/kg, route not given
Description: Another method of measuring antidepressant activity that may be used to evaluate the compounds of the present invention is the tail suspension test in mice described in Vogel, H. G. and Vogel, W. H. (Eds.) Drug Discovery and Evaluation, Springer-Verlag Berlin Heidelberg, 1997) pp. 304-3059). The mouse tail suspension assay was conducted 60 minutes after dosing. The duration of immobility was recorded for a period of 5 minutes after tail suspension was initiated, and reduction in the duration of immobility by ≥50% relative to the control group indicated antidepressant activity. Statistical analysis was also performed by using one-way ANOVA followed by Dunnett's test to compare the data of test compound-treated and vehicle control groups. Significance was considered to be P<0.05.

[3] = molecular target: T1, Human dopamine transporters (Homo sapiens, UniProt Q01959); assay: Binding to the dopamine transporter ([125I]-RTI-55); conditions: 10 μM; read-out: inhibitory effect on [125I]-RTI-55 binding
T1 construct: expressed in transfected cells; host or cells: CHO-K1 cells (membranes)
Description: Human dopamine transporters expressed in CHO—K1 cells are used in modified Tris-HCl buffer at pH 7.4. […] Non-specific binding is estimated in the presence of […] nomifensine.

CHO cells = assay: In vitro MTT toxicity screen; assay type: cell-based, Chinese hamster; conditions: 10 μM, compared to positive control group (10% DMSO)
Description: The toxicity of the compounds of the present invention at a concentration of 10 μM has been explored using the tetrazolium salt (MTT) method in CHO cells. The MTT method involving conversion of MTT to colored formazan by cells serves as an indirect measurement of cell growth/cell kill, as reported by several groups (Paimela, T. et al. Mol Vis 2012; 18: 1189-96; Hansen, M. B. et al. J Immunol Methods 1989, 119(2): 203-10).
In the MTT assay, cytotoxicity is correlated with the color of MTT and is measured with a spectrophotometer at the wavelength of 570 nm. Briefly, fresh MTT solution (10 mg/mL in 1×PBS) was added (1:20 volume of medium) and the cells were incubated for 1.5 hours. The cells were lysed and purple formazan was dissolved into the solution by overnight incubation with MTT lysis buffer (20% SDS, 50% N,N-dimethylformamide, 2% acetic acid, 25 mM HCl; the volume of medium+volume of MTT salt solution).

[4] = tested on: J20 mouse model and wild-type mice; assay: Morris water maze test in old wild-type and J20 mice; assay type: in vivo; conditions: 30 mg/kg i.p.
Source text: Familial Alzheimer's disease (AD) is associated with mutations that lead to the production of the β-amyloid 42 (Aβ42) peptide, a constituent of the characteristic amyloid plaques diagnostic of AD. These mutations occur at the proteolytic cleavage sites in the gene encoding the amyloid precursor protein (APP), and in the genes for presenilins 1 and 2 (PSEN1 and PSEN2), enzymes involved in APP cleavage. […] The J20 mouse model is a suitable experimental animal model for testing the activity of drugs on cognitive performance because these mice show robust impairment in spatial learning and spatial reference memory (Karl, T. et al. Behav Brain Res 2012, 228(2): 392-97; Garcia-Barroso, C. et al. Neuropharmacology 2013, 64: 114-23). The effects of Example 2 on spatial memory and learning in the J20 mouse model using the Morris water maze test (Vorhees, Ch. V. and Williams, M. T. Nat Protoc 2006, 1(2): 848-58) were investigated in our laboratory.
The Morris water maze test was applied to 45 old male mice. Twenty wild-type and 25 J20 mice (n=10-11 for each group of treatment/genotype; 10-14 months of age) were treated with vehicle or Example 2 at 30 mg/kg i.p. Percent times in quadrants, escape latencies, distance to goal and other parameters were recorded and compared between groups to assess the compound's activity.

T1 sequence (Q01959 whole entry): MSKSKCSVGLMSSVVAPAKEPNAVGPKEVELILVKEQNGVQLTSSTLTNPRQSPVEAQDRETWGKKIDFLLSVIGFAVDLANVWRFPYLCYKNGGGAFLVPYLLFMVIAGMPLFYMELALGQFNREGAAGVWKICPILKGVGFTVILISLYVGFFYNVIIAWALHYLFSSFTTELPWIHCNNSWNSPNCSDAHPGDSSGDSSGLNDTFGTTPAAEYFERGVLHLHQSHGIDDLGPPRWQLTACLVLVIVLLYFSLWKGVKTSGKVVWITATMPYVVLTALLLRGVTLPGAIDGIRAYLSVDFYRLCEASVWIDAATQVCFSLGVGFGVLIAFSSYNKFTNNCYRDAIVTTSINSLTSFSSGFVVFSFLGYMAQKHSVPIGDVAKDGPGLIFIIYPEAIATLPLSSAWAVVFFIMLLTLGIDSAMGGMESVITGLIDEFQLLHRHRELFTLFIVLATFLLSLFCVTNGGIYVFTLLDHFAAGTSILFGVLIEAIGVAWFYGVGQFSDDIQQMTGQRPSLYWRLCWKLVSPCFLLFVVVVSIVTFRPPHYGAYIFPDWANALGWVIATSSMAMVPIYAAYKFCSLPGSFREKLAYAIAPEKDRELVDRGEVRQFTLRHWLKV

CNCCC(Oc1ccc(CCO)cc1)c1ccccc1.Cl (single isomer, unassigned) [Example 2, 2-[4-[3-(Methylamino)-1-phenylpropoxy]phenyl]ethanol hydrochloride]
antidepressant activity (duration of immobility) (mice [1]; 30 mg/kg intraperitoneal, 60 minutes post-dosing): significant antidepressant activity
antidepressant activity (duration of immobility) (mice [1]; 90 mg/kg p.o.): significant activity
antidepressant effect (duration of immobility) (mice [2]): significant activity
inhibition at 10 µM [3]: 88%
cell viability (MTT) (CHO cells): 100%
visuospatial memory and learning ([4]; J20 mice): positive effect in some sessions
visuospatial memory and learning ([4]; old wild type mice): increase in visuospatial memory and learning
